Where a name gives a salt, the structure may show the parent alone. Read-outs that look alike come from different tables or passages of the source.
Tested on: human primary T-cells, IL-2 stimulated proliferation (JAK-1 and JAK-3 dependent; reported as JAK3 activity)
Assay: Human primary T-cell proliferation stimulated by IL-2 (Example 3)
Assay type: cell-based
Settings: tested under conditions described in Example 3 (IL-2 stimulated human primary T-cell proliferation), read-out: ability to inhibit JAK3 activity, IC50 range (Table V)
Procedure, shortened: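 Peripheral-blood human T-cells pre-activated via TCR/CD28, IL-2-starved overnight, then cultured 72 h at 37 °C with compound in Yssel's medium containing IL-2 (80 U/mL in cell suspension). Proliferation read as viable-cell ATP by CellTiter-Glo luminescence; reduction versus control taken as JAK pathway inhibition.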

Structure (SMILES) | IC50 [nM] | IC50 (Homo sapiens, T-cell) [nM]
Cc1cnc(Nc2ccc(C(=O)NC3CCC3)cc2)nc1Nc1ccc2oc(=O)n(COP(=O)(OC(C)(C)C)OC(C)(C)C)c2c1 [Compound I-152, di-tert-butyl(5-(2-(4-(cyclobutylcarbamoyl)phenylamino)-5-methylpyrimidin-4-ylamino)-2-oxobenzo[d]oxazol-3(2H)-yl)methyl phosphate] | 500 to 5000 | 
Cc1cnc(Nc2ccc(Cl)c(C(F)(F)F)c2)nc1Nc1ccc2oc(=O)[nH]c2c1 [Compound I-153, 5-[2-(4-Chloro-3-trifluoromethyl-phenylamino)-5-methyl-pyrimidin-4-ylamino]-3H-benzooxazol-2-one] |  | < 500
Cc1ccc(Nc2ncc(C)c(Nc3ccc4oc(=O)[nH]c4c3)n2)cc1C(F)(F)F [Compound I-154, 5-[5-Methyl-2-(4-methyl-3-trifluoromethyl-phenylamino)-pyrimidin-4-ylamino]-3H-benzooxazol-2-one] |  | < 500
CSc1ccc(Nc2ncc(C)c(Nc3ccc4oc(=O)[nH]c4c3)n2)cc1C(F)(F)F [Compound I-155, 5-[5-Methyl-2-(4-methylsulfanyl-3-trifluoromethyl-phenylamino)-pyrimidin-4-ylamino]-3H-benzooxazol-2-one] |  | < 500
Cc1cnc(Nc2ccc(C(N)=O)c(N3CCC(C)CC3)c2)nc1Nc1ccc2oc(=O)[nH]c2c1 [Compound I-156, 4-[5-Methyl-4-(2-oxo-2,3-dihydro-benzooxazol-5-ylamino)-pyrimidin-2-ylamino]-2-(4-methyl-piperidin-1-yl)-benzamide] |  | < 500
Cc1cnc(Nc2cccc(S(=O)(=O)C3CCCC3)c2)nc1Nc1ccc2oc(=O)[nH]c2c1 [Compound I-157, 5-[2-(3-Cyclopentanesulfonyl-phenylamino)-5-methyl-pyrimidin-4-ylamino]-3H-benzooxazol-2-one] |  | < 500
Cc1cnc(Nc2cccc(C(F)(F)F)c2)nc1Nc1ccc2oc(=O)[nH]c2c1 [Compound I-158, 5-[5-Methyl-2-(3-trifluoromethyl-phenylamino)-pyrimidin-4-ylamino]-3H-benzooxazol-2-one] |  | < 500
COC(=O)c1ccc(Nc2ncc(C)c(Nc3ccc4oc(=O)[nH]c4c3)n2)cc1C [Compound I-159, 2-Methyl-4-[5-methyl-4-(2-oxo-2,3-dihydro-benzooxazol-5-ylamino)-pyrimidin-2-ylamino]-benzoic acid methyl ester] |  | < 500
Cc1cnc(Nc2ccc(C(F)(F)F)cc2)nc1Nc1ccc2oc(=O)[nH]c2c1 [Compound I-160, 5-[5-Methyl-2-(4-trifluoromethyl-phenylamino)-pyrimidin-4-ylamino]-3H-benzooxazol-2-one] |  | < 500
Cc1cnc(Nc2ccc(OC(F)(F)F)c(C(F)(F)F)c2)nc1Nc1ccc2oc(=O)[nH]c2c1 [Compound I-161, 5-[5-Methyl-2-(4-trifluoromethoxy-3-trifluoromethyl-phenylamino)-pyrimidin-4-ylamino]-3H-benzooxazol-2-one] |  | < 500
Cc1cnc(Nc2cc(F)cc(C(F)(F)F)c2)nc1Nc1ccc2oc(=O)[nH]c2c1 [Compound I-162, 5-[2-(3-Fluoro-5-trifluoromethyl-phenylamino)-5-methyl-pyrimidin-4-ylamino]-3H-benzooxazol-2-one triflouroacetate salt] | > 10000 | 
Cc1cnc(Nc2ccc(F)c(OC(F)(F)F)c2)nc1Nc1ccc2oc(=O)[nH]c2c1 [Compound I-163, 5-[2-(4-Fluoro-3-trifluoromethoxy-phenylamino)-5-methyl-pyrimidin-4-ylamino]-3H-benzooxazol-2-one] |  | < 500
COCCOc1ccc(Nc2ncc(C)c(Nc3ccc4oc(=O)[nH]c4c3)n2)cc1C(F)(F)F [Compound I-165, 5-{2-[4-(2-Methoxy-ethoxy)-3-trifluoromethyl-phenylamino]-5-methyl-pyrimidin-4-ylamino}-3H-benzooxazol-2-one] |  | < 500
Cc1cc(Nc2ncc(C)c(Nc3ccc4oc(=O)[nH]c4c3)n2)ccc1C(C)C [Compound I-166, 5-[2-(4-Isopropyl-3-methyl-phenylamino)-5-methyl-pyrimidin-4-ylamino]-3H-benzooxazol-2-one] |  | < 500
Cc1cnc(Nc2ccc(C(F)(F)F)c(Cl)c2)nc1Nc1ccc2oc(=O)[nH]c2c1 [Compound I-167, 5-[2-(3-Chloro-4-trifluoromethyl-phenylamino)-5-methyl-pyrimidin-4-ylamino]-3H-benzooxazol-2-one] |  | < 500
CCOc1ccc(Nc2ncc(C)c(Nc3ccc4oc(=O)[nH]c4c3)n2)cc1C(F)(F)F [Compound I-168, 5-[2-(4-Ethoxy-3-trifluoromethyl-phenylamino)-5-methyl-pyrimidin-4-ylamino]-3H-benzooxazol-2-one] |  | 500 to 5000
Cc1cnc(Nc2cc(C(F)(F)F)cc(C(F)(F)F)c2)nc1Nc1ccc2oc(=O)[nH]c2c1 [Compound I-169, 5-[2-(3,5-Bis-trifluoromethyl-phenylamino)-5-methyl-pyrimidin-4-ylamino]-3H-benzooxazol-2-one] |  | < 500
Cc1cc(Nc2ncc(C)c(Nc3ccc4oc(=O)[nH]c4c3)n2)ccc1C(=O)O [Compound I-170, 2-Methyl-4-[5-methyl-4-(2-oxo-2,3-dihydro-benzooxazol-5-ylamino)-pyrimidin-2-ylamino]-benzoic acid] |  | > 10000
CCNC(=O)c1ccc(Nc2ncc(C)c(Nc3ccc4oc(=O)[nH]c4c3)n2)cc1C [Compound I-171, N-Ethyl-2-methyl-4-[5-methyl-4-(2-oxo-2,3-dihydro-benzooxazol-5-ylamino)-pyrimidin-2-ylamino]-benzamide] |  | < 500
Cc1cnc(Nc2ccc(Cl)cc2)nc1Nc1ccc2oc(=O)[nH]c2c1 [Compound I-172, 5-[2-(4-Chloro-phenylamino)-5-methyl-pyrimidin-4-ylamino]-3H-benzooxazol-2-one] |  | < 500
Cc1cnc(Nc2cccc(Cl)c2)nc1Nc1ccc2oc(=O)[nH]c2c1 [Compound I-173, 5-[2-(3-Chloro-phenylamino)-5-methyl-pyrimidin-4-ylamino]-3H-benzooxazol-2-one] |  | < 500
Cc1cnc(Nc2ccccc2)nc1Nc1ccc2oc(=O)[nH]c2c1 [Compound I-174, 5-(5-Methyl-2-phenylamino-pyrimidin-4-ylamino)-3H-benzooxazol-2-one] |  | < 500
Cc1cnc(Nc2cccc(Br)c2)nc1Nc1ccc2oc(=O)[nH]c2c1 [Compound I-175, 5-[2-(3-Bromo-phenylamino)-5-methyl-pyrimidin-4-ylamino]-3H-benzooxazol-2-one] |  | < 500
Cc1cc(Nc2ncc(C)c(Nc3ccc4oc(=O)[nH]c4c3)n2)c(C)cc1Cl [Compound I-176, 5-[2-(4-Chloro-2,5-dimethyl-phenylamino)-5-methyl-pyrimidin-4-ylamino]-3H-benzooxazol-2-one] |  | 500 to 5000
CC(=O)Nc1ccc(Nc2ncc(C)c(Nc3ccc4oc(=O)[nH]c4c3)n2)cc1C(F)(F)F [Compound I-177, N-{4-[5-Methyl-4-(2-oxo-2,3-dihydro-benzooxazol-5-ylamino)-pyrimidin-2-ylamino]-2-trifluoromethyl-phenyl}-acetamide] |  | < 500
Cc1ccc(Nc2ncc(C)c(Nc3ccc4oc(=O)[nH]c4c3)n2)cc1C [Compound I-178, 5-[2-(3,4-Dimethyl-phenylamino)-5-methyl-pyrimidin-4-ylamino]-3H-benzooxazol-2-one] |  | < 500

Source: patent US10005767B2, “Compositions and methods for inhibition of the JAK pathway” (Rigel Pharmaceuticals, Inc., priority 2009, dated 2018)
